Assays:
Format in all cases: in vivo
[1] = system: mustard beetle larvae (Phaedon cochleariae); assay: Phaedon larvae test (Example F); details: found effect, dipped cabbage leaves
Procedure: (§1) • Solvent: 7 parts by weight of dimethylformamide • Emulsifier: 2 parts by weight of alkylaryl polyglycol ether
(§2) After the desired period, the destruction in % is determined. 100% means that all of the beetle larvae have been destroyed; 0% means that no beetle larvae have been destroyed. The destruction values determined are calculated using Carpenter's formula.

[2] = system: army worm caterpillars (Spodoptera frugiperda); assay: Spodoptera frugiperda test (Example G); details: found effect, dipped cabbage leaves
Procedure: (§3) Spodoptera frugiperda Test
as §1
(§4) Cabbage leaves (Brassica oleracea) are treated by being dipped into the active compound preparation of the desired concentration and are populated with army worm caterpillars (Spodoptera frugiperda) while the leaves are still moist.
(§5) After the desired period, the destruction in % is determined. 100% means that all of the caterpillars have been destroyed; 0% means that no caterpillars have been destroyed. The destruction values determined are calculated using Carpenter's formula.

[3] = system: Heliothis armigera caterpillars; details: found effect, dipped soya bean shoots (Glycine max)
Procedure: as §1
Soya bean shoots (Glycine max) are treated by being dipped into the active compound preparation of the desired concentration and are populated with Heliothis armigera caterpillars while the leaves are still moist.
After the desired period, the destruction in % is determined. 100% means that all of the caterpillars have been destroyed; 0% means that no caterpillars have been destroyed. The destruction values determined are calculated using Carpenter's formula (see previous page).

[4] = system: mustard beetle larvae (Phaedon cochleariae); details: found effect, dipped cabbage leaves (Brassica oleracea)
Procedure: as §1, §2

[5] = system: diamond-back moth caterpillars (Plutella xylostella, sensitive strain); assay: Plutella test, sensitive strain (Example C); details: found effect, dipped cabbage leaves
Procedure: Plutella Test, Sensitive Strain
as §1
Cabbage leaves (Brassica oleracea) are treated by being dipped into the active compound preparation of the desired concentration and are populated with diamond-back moth caterpillars (Plutella xylostella, sensitive strain) while the leaves are still moist.
as §5

[6] = system: diamond-back moth caterpillars (Plutella xylostella, resistant strain); assay: Plutella test, resistant strain (Example D); details: found effect, dipped cabbage leaves
Procedure: Plutella Test, Resistant Strain
as §1
Cabbage leaves (Brassica oleracea) are treated by being dipped into the active compound preparation of the desired concentration and are populated with diamond-back moth caterpillars (Plutella xylostella, resistant strain) while the leaves are still moist.
as §5

[7] = system: army worm caterpillars (Spodoptera frugiperda); details: found effect, dipped cabbage leaves
Procedure: as §3
• Solvent: 7 parts by weight of dimethylformamide • Emulsifier: 2 parts by weight of alkylaryl polyglycol ether.
as §4, §5

Question: Which “LC95 after 6 days” value [1] does the source give for `CC[C@H](C)[C@H]1O[C@]2(C=C[C@@H]1C)C[C@@H]1C[C@@H](C/C=C(\C)[C@@H](O[C@H]3C[C@H](OC)[C@@H](O[C@H]4C[C@H](OC)[C@@H](O)[C@H](C)O4)[C@H](C)O3)[C@@H](C)/C=C/C=C3\CO[C@@H]4[C@H](O)C(C)=C[C@@H](C(=O)O1)[C@]34O)O2` [Avermectin, abamectin] here?
Answer: 0.345 ppm

Question: And the “LC95 after 6 days” value [2]?
Answer: 30.104 ppm

Question: How did the “LC50 after 6 days” value [3] turn out when emamectin benzoate was run?
Answer: 0.007 ppm

Question: What about the “LC50 after 6 days” value [4] of the same molecule?
Answer: 0.026 ppm

Question: What about the “LC95 after 6 days” value [5] of the same molecule?
Answer: 0.0009 ppm

Question: And the “LC95 after 6 days” value [6]?
Answer: 0.0033 ppm

Question: And the “LC50 after 6 days” value [7]?
Answer: 0.0029 ppm

Reference: patent US20050130913A1, “Synergistic insecticidal mixtures” (priority 2002, published 2005)
